These results are taken from article PMC8802628, “Selective activation of PFKL suppresses the phagocytic oxidative burst” (Cell, 2021).

The test has as its target T1, PFKL (Homo sapiens, UniProt P17858).
T1 construct: made in house; host or cells: Sf9 insect cells (baculovirus, Bac-to-Bac)
T1 sequence (P17858 1-780): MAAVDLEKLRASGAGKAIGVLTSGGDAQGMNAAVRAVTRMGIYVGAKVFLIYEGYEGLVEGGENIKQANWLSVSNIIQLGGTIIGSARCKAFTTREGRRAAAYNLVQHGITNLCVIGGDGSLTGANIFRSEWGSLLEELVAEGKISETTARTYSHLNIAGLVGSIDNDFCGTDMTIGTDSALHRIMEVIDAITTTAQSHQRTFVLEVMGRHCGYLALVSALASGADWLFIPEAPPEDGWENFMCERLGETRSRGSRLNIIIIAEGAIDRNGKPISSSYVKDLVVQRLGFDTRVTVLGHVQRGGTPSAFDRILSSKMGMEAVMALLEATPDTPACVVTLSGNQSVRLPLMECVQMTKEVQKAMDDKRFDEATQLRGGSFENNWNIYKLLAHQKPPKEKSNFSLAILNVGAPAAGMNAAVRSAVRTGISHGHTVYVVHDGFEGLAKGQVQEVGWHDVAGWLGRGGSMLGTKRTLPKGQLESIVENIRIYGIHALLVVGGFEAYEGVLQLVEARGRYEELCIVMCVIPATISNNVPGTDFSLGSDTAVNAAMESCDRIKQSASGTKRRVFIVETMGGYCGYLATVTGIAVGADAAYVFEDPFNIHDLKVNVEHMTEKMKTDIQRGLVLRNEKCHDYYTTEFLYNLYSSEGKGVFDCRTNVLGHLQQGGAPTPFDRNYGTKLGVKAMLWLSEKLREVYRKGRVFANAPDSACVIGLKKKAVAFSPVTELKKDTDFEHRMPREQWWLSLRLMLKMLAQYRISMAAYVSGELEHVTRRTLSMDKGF
Nature of the test: Thermal inactivation assay of PFKL. It counts as biochemical. Conditions: 35°C; 200 μM FBP, 200 nM NA-11. The procedure:
Thermal inactivation assays were performed as previously described for PFKP, with modifications to account for the decreased stability of PFKL ([Sánchez-Martínez et al., 2000]). PFKL was diluted to 10 ng/mL, with a final buffer composition of 53.3 mM HEPES, 100 mM KCl, 0.167 mM DTT, 83.3 μM ammonium sulfate, 0.83% glycerol, 0.170 mM ATP, and 16.7 mM EDTA. Samples were incubated at 35°C. At the times indicated, samples were removed and residual PFK1 activity measured using the PK/LDH auxiliary enzyme assay described above with 125 μM ATP and 5 mM F6P. To determine if small molecule ligands altered PFKL stability, 200 μM FBP and 200 nM NA-11 were added.

Each structure is given as a SMILES string.

For the molecule `CC(=O)Nc1ccc2c(c1)OCc1cc(-c3ccccc3C#CCCCO)nn1C2` [NA-11], the “protection of PFKL from thermal inactivation” value is listed as “did not”.
